Laboratory results taken from the NIST ThermoML archive (doi:10.1021/acs.jced.7b01006).

Assay: xn = mol fraction of the nth substance listed
Details: 100 kPa, Liquid; for electrical conductivity: Alternating current cell with electrodes; for viscosity: Falling or rolling sphere viscometry; for mass density: Vibrating tube method

CCCCn1cc[n+](C)c1C.N#C[S-] [1-butyl-2,3-dimethylimidazolium thiocyanate] + CC#N
Details	electrical conductivity [S/m]	mass density [kg/m3]	viscosity [mPa·s]
288.15 K, x1 = 0.1001	4.72	888.99	16.94
288.15 K, x1 = 0.2004	4.01	951.31	38.93
288.15 K, x1 = 0.2999	3.35	995.07	67.12
288.15 K, x1 = 0.4003	1.19	1026.63	102.7
288.15 K, x1 = 0.5001	0.765	1038.63	145.4
288.15 K, x1 = 0.5999	0.599	1050.73	193.9
288.15 K, x1 = 0.6999	0.429	1062.95	249.1
288.15 K, x1 = 0.8002	0.358	1068.26	310.4
288.15 K, x1 = 0.9002	0.24	1075.99	377.8
288.15 K, x1 = 1	0.106	1084.2	452.7
293.15 K, x1 = 0.1001	5.01	885.19	11.74
293.15 K, x1 = 0.2004	4.34	948.02	27.08
293.15 K, x1 = 0.2999	3.71	991.9	46.77
293.15 K, x1 = 0.4003	1.45	1024	71.58
293.15 K, x1 = 0.5001	0.919	1036.16	100.9
293.15 K, x1 = 0.5999	0.728	1048.16	134.8
293.15 K, x1 = 0.6999	0.531	1060.42	172.9
293.15 K, x1 = 0.8002	0.458	1066.14	214.7
293.15 K, x1 = 0.9002	0.316	1073.56	260.4
293.15 K, x1 = 1	0.153	1081.11	311.3
298.15 K, x1 = 0.1001	5.31	881.36	8.229
298.15 K, x1 = 0.2004	4.69	944.6	18.85
298.15 K, x1 = 0.2999	4.05	988.57	32.07
298.15 K, x1 = 0.4003	1.71	1021.27	49.45
298.15 K, x1 = 0.5001	1.12	1033.49	69.9
298.15 K, x1 = 0.5999	0.891	1045.66	93.7
298.15 K, x1 = 0.6999	0.654	1057.9	119.9
298.15 K, x1 = 0.8002	0.57	1063.84	148.9
298.15 K, x1 = 0.9002	0.39	1071.37	181
298.15 K, x1 = 1	0.217	1078.2	218
303.15 K, x1 = 0.1001	5.61	877.5	5.854
303.15 K, x1 = 0.2004	5.03	941.34	12.95
303.15 K, x1 = 0.2999	4.42	985.32	22.58
303.15 K, x1 = 0.4003	2.01	1018.59	34.51
303.15 K, x1 = 0.5001	1.32	1030.79	49.24
303.15 K, x1 = 0.5999	1.06	1043.17	66.62
303.15 K, x1 = 0.6999	0.795	1055.17	85.89
303.15 K, x1 = 0.8002	0.697	1061.75	106.9
303.15 K, x1 = 0.9002	0.497	1068.94	130.3
303.15 K, x1 = 1	0.293	1075.18	157.9
308.15 K, x1 = 0.1001	5.92	873.64	4.393
308.15 K, x1 = 0.2004	5.36	938.14	9.306
308.15 K, x1 = 0.2999	4.79	982.11	16.16
308.15 K, x1 = 0.4003	2.34	1015.92	24.59
308.15 K, x1 = 0.5001	1.56	1028.06	34.95
308.15 K, x1 = 0.5999	1.26	1040.79	47.89
308.15 K, x1 = 0.6999	0.96	1052.69	62.82
308.15 K, x1 = 0.8002	0.853	1059.56	78.98
308.15 K, x1 = 0.9002	0.61	1066.57	97.33
308.15 K, x1 = 1	0.386	1072.16	118.9
313.15 K, x1 = 0.1001	6.23	869.75	3.257
313.15 K, x1 = 0.2004	5.7	934.72	6.633
313.15 K, x1 = 0.2999	5.15	978.72	11.34
313.15 K, x1 = 0.4003	2.67	1013.21	17.39
313.15 K, x1 = 0.5001	1.81	1025.43	25.45
313.15 K, x1 = 0.5999	1.48	1038.3	35.42
313.15 K, x1 = 0.6999	1.16	1050.1	46.81
313.15 K, x1 = 0.8002	1.03	1057.26	59.49
313.15 K, x1 = 0.9002	0.749	1064.3	73.79
313.15 K, x1 = 1	0.496	1069.15	90.46
318.15 K, x1 = 0.1001	6.53	865.95	2.458
318.15 K, x1 = 0.2004	6.03	931.41	4.722
318.15 K, x1 = 0.2999	5.52	975.35	8.162
318.15 K, x1 = 0.4003	3.03	1010.57	12.95
318.15 K, x1 = 0.5001	2.07	1022.69	18.62
318.15 K, x1 = 0.5999	1.73	1035.83	26.33
318.15 K, x1 = 0.6999	1.38	1047.6	35.55
318.15 K, x1 = 0.8002	1.23	1055.02	46.09
318.15 K, x1 = 0.9002	0.913	1061.87	57.94
318.15 K, x1 = 1	0.627	1066.16	72.04
323.15 K, x1 = 0.1001	6.83	862.09	1.882
323.15 K, x1 = 0.2004	6.37	927.98	3.578
323.15 K, x1 = 0.2999	5.89	972.17	5.904
323.15 K, x1 = 0.4003	3.4	1007.9	9.491
323.15 K, x1 = 0.5001	2.37	1020.14	13.67
323.15 K, x1 = 0.5999	2.01	1033.37	19.96
323.15 K, x1 = 0.6999	1.63	1045.21	27.68
323.15 K, x1 = 0.8002	1.46	1052.82	36.89
323.15 K, x1 = 0.9002	1.1	1059.62	46.83
323.15 K, x1 = 1	0.774	1063.2	57.11
